Ki data for 24 compounds are collected here from ChEMBL document CHEMBL1131872, “3-Amidinophenylalanine-based inhibitors of urokinase” (Bioorg Med Chem Lett, 1999).

The target in assay [1] is T1, Urokinase-type plasminogen activator (Homo sapiens, UniProt P00749). The experiment in a line: Tested for inhibition of plasminogen activator urokinase (microPa).
The target in assay [2] is T2, Plasminogen (Homo sapiens, UniProt P00747). The experiment in a line: Tested for inhibition of plasmin.
In assay [3] the target is T3, Serine protease 1 (Bos taurus, UniProt P00760).
T3 sequence (P00760 whole entry): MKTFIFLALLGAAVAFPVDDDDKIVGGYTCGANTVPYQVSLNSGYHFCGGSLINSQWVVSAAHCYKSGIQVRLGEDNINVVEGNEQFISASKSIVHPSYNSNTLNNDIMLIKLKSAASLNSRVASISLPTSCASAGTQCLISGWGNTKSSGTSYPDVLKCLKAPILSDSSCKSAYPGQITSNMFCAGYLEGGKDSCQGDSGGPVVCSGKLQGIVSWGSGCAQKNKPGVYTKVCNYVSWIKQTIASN
Nature of the assay: Tested for inhibition of trypsin.

In assay [4] the target is T1, Urokinase-type plasminogen activator. The experiment in a line: Compound was tested for inhibition of plasminogen activator urokinase (microPa).
The target in another assay is Coagulation factor X (Bos taurus, UniProt P00743). The experiment in a line: Compound was tested for inhibition of Coagulation factor X.
Chain of Coagulation factor X (P00743 41-180 limits assumed): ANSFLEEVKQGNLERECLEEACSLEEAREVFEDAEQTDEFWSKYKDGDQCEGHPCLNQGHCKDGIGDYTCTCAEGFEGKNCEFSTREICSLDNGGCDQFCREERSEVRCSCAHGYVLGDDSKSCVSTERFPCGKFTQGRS
Chain of Coagulation factor X (P00743 234-492 limits assumed): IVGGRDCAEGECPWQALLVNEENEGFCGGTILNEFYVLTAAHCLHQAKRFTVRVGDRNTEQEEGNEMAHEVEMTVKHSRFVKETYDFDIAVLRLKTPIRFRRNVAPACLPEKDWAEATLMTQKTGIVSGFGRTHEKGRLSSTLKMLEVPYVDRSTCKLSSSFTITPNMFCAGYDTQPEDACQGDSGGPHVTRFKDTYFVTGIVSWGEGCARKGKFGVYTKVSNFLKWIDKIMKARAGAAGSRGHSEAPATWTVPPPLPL
Assay [5] concerns the target T1, Urokinase-type plasminogen activator. Nature of the assay: Compound was tested for inhibition of plasminogen activator urokinase (microPa).
The next assay concerns the target Plasma kallikrein (Homo sapiens, UniProt P03952). The experiment in a line: Compound was tested for inhibition of plasma kallikrein.
In assay [6] the target is T2, Plasminogen. The experiment in a line: Compound was tested for inhibition of plasmin.
A short description of assay [7]: Compound was tested for inhibition of protein Ca.
The next assay concerns the target Prothrombin (Homo sapiens, UniProt P00734). Nature of the assay: Compound was tested for inhibition of thrombin. The arrangement: species or system Bos taurus.
In assay [8] the target is T3, Serine protease 1. Nature of the assay: Compound was tested for inhibition of trypsin.
The nature of assay [9]: Compound was tested for inhibition of sc-tissue plasminogen activator.

T2 sequence (P00747 97-580 limits assumed): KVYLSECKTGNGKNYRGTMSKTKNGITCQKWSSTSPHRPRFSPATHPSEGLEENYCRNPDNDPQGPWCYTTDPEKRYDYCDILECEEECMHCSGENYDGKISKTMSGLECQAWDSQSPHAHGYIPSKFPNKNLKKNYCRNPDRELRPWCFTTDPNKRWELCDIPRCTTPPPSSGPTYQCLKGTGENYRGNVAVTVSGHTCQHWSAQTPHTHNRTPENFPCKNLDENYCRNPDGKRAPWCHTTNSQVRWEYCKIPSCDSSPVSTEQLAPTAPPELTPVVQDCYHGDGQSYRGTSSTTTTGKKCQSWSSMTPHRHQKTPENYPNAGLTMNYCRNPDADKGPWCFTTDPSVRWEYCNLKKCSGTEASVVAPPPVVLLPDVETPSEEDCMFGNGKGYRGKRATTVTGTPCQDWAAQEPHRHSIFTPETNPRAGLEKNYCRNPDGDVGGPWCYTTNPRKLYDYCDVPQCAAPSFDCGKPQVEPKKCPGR
T2 sequence (P00747 581-810 limits assumed): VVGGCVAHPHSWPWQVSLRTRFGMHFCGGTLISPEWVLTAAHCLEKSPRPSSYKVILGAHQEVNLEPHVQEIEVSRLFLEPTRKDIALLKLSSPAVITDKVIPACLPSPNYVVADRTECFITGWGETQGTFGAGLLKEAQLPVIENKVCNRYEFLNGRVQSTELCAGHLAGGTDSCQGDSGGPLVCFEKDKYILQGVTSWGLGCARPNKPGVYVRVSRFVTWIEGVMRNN
Chain of Plasma kallikrein (P03952 20-390 limits assumed): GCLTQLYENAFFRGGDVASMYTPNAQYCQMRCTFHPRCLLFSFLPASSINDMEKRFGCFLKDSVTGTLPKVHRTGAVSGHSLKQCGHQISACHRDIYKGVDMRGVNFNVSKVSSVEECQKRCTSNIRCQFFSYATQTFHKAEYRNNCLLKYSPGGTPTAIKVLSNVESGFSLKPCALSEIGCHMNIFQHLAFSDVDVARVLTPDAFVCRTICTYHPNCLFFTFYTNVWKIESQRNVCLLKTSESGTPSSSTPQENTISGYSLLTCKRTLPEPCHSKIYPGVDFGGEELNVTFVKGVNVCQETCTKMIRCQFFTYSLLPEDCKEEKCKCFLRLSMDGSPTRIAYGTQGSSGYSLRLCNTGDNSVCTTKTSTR
Chain of Plasma kallikrein (P03952 391-638 limits assumed): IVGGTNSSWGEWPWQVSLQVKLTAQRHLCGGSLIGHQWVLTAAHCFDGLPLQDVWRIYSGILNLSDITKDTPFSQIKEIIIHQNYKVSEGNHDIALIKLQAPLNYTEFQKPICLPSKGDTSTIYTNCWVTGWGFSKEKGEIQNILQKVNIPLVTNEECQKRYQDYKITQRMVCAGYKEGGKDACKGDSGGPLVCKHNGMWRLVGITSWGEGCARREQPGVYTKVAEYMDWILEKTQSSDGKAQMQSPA

For `COC(=O)C1CCCCN1C(=O)C(Cc1cccc(C(=N)N)c1)NS(=O)(=O)c1c(C(C)C)cc(C(C)C)cc1C(C)C` (stereo not drawn), the results for the inhibition constant (Ki) (in assay [1]; at Plasminogen [2]; at Serine protease 1 [3]) were 33 µM, 1 µM and 1.4 µM, respectively.
Taken in the same sequence, the figures for `CC(C)c1cc(C(C)C)c(S(=O)(=O)NC(Cc2cccc(C(=N)N)c2)C(=O)N2CCN(C)CC2)c(C(C)C)c1` (stereo not drawn) were 52 µM, 21 µM and 3 µM.
Taken in the same sequence, the figures for `CC(C)c1cc(C(C)C)c(S(=O)(=O)NC(Cc2cccc(C(=N)N)c2)C(=O)N2CCNCC2)c(C(C)C)c1` (stereo not drawn) were 12 µM, 7.1 µM and 0.98 µM.
Turning to `CC1CCN(C(=O)C(Cc2cccc(C(=N)N)c2)NS(=O)(=O)c2c(C(C)C)cc(C(C)C)cc2C(C)C)CC1` (stereo not drawn), the affinity on Plasminogen [2], expressed as Ki, was 4 µM.
Turning to `CC(C)c1cc(C(C)C)c(S(=O)(=O)NC(Cc2cccc(C(=N)N)c2)C(=O)N2CCCCC2C(=O)O)c(C(C)C)c1` (stereo not drawn), the inhibition constant Ki (commonly a dissociation constant, usually derived from enzyme kinetics or from competition with a known ligand) in [1] was 1.3 µM; on Plasminogen [2] it was 1.5 µM; on Serine protease 1 [3], 0.5 µM.
For the compound `CC(C)c1cc(C(C)C)c(S(=O)(=O)NC(Cc2cccc(C(=N)N)c2)C(=O)N2CCOCC2)c(C(C)C)c1` (stereo not drawn), the Ki in assay [1] worked out at 5.4 µM; at Plasminogen [2], 4.5 µM; at Serine protease 1 [3] it was 0.49 µM.
Consider `N=C(N)c1cccc(CC(NS(=O)(=O)c2ccc3ccccc3c2)C(=O)N2CCCC2)c1` (stereo not drawn), for which the inhibition constant Ki in [4] stood at 73 µM; on Plasminogen [2] it was 12 µM.
On to `CC(C)c1cc(C(C)C)c(S(=O)(=O)NC(Cc2cccc(C(=N)N)c2)C(=O)N2CCCC2)c(C(C)C)c1` (stereo not drawn), for which the inhibition constant (Ki) in [1] is 19 µM; at Plasminogen [2] it was 9.6 µM; on Serine protease 1 [3], 3.9 µM.
The corresponding values for `CC(C)c1cc(C(C)C)c(S(=O)(=O)NC(Cc2cccc(C(=N)N)c2)C(=O)N2CCCCCC2)c(C(C)C)c1` (stereo not drawn) are 4.4 µM, 2.8 µM and 0.95 µM.
Turning to `N=C(N)c1cccc(CC(NS(=O)(=O)c2ccc3ccccc3c2)C(=O)N2CCOCC2)c1` (stereo not drawn), the results for the inhibitory constant (Ki) (in assay [1]; at Plasminogen [2]) were 58 µM and 7.7 µM, respectively.
The corresponding values for `N=C(N)c1cccc(CC(NS(=O)(=O)c2ccc3ccccc3c2)C(=O)N2CCCCCCC2)c1` (stereo not drawn) are 19 µM and 7.8 µM.
For `N=C(N)c1cccc(CC(NS(=O)(=O)c2ccc3ccccc3c2)C(=O)N2CCCCCC2)c1` (stereo not drawn), the Ki in assay [1] is 28 µM; at Plasminogen [2], 6.6 µM; on Serine protease 1 [3], 0.74 µM.
Take `CCOC(=O)N1CCN(C(=O)[C@H](Cc2cccc(C(=N)N)c2)NS(=O)(=O)c2c(C(C)C)cc(C(C)C)cc2C(C)C)CC1`: the inhibition constant Ki at Coagulation factor X is 1.7 µM; in assay [5], 0.41 µM; on Plasma kallikrein, 7.2 µM; on Plasminogen [6] it was 0.39 µM; in [7], 2.3 µM; at Prothrombin, 0.49 µM. The Ki worked out at 0.037 µM on Serine protease 1 [8] and 4.9 µM in assay [9].
As to `COC(=O)C1CCCN(C(=O)C(Cc2cccc(C(=N)N)c2)NS(=O)(=O)c2c(C(C)C)cc(C(C)C)cc2C(C)C)C1` (stereo not drawn), the Ki in assay [1] came out at 2.5 µM; at Plasminogen [2], 1 µM; on Serine protease 1 [3] it was 0.36 µM.
The corresponding values for `CNC(=O)C1CCN(C(=O)C(Cc2cccc(C(=N)N)c2)NS(=O)(=O)c2c(C(C)C)cc(C(C)C)cc2C(C)C)CC1` (stereo not drawn) are 4.8 µM, 2.5 µM and 0.36 µM.
Taken in the same sequence, the figures for `CCOC(=O)N1CCN(C(=O)C(Cc2cccc(C(=N)N)c2)NS(=O)(=O)c2c(C(C)C)cc(C(C)C)cc2C(C)C)CC1` (stereo not drawn) were 0.96 µM, 1.2 µM and 0.12 µM.
With `CNC(=O)C1CCCN(C(=O)C(Cc2cccc(C(=N)N)c2)NS(=O)(=O)c2c(C(C)C)cc(C(C)C)cc2C(C)C)C1` (stereo not drawn), the values for the Ki (in assay [1]; on Plasminogen [2]) were 12 µM and 0.4 µM, respectively.
In the case of `CC(C)c1cc(C(C)C)c(S(=O)(=O)NC(Cc2cccc(C(=N)N)c2)C(=O)N2CCN(S(C)(=O)=O)CC2)c(C(C)C)c1` (stereo not drawn), the Ki was 19 µM in [1], 8 µM on Plasminogen [2] and 0.62 µM on Serine protease 1 [3].
For the compound `COC(=O)C1CCN(C(=O)C(Cc2cccc(C(=N)N)c2)NS(=O)(=O)c2c(C(C)C)cc(C(C)C)cc2C(C)C)CC1` (stereo not drawn), the results for the inhibition constant (Ki) (in assay [1]; on Plasminogen [2]) were 1.3 µM and 1.4 µM, respectively.
Taken in the same sequence, the figures for `CC(C)c1cc(C(C)C)c(S(=O)(=O)NC(Cc2cccc(C(=N)N)c2)C(=O)N2CCCC(C(=O)O)C2)c(C(C)C)c1` (stereo not drawn) were 17 µM and 8.2 µM.
`CC(C)c1cc(C(C)C)c(S(=O)(=O)NC(Cc2cccc(C(=N)N)c2)C(=O)N2CCCCCCC2)c(C(C)C)c1` (stereo not drawn): the Ki in assay [1] turned out to be 7.8 µM; at Plasminogen [2], 3.2 µM; on Serine protease 1 [3] it was 0.83 µM.
As to `CC(C)c1cc(C(C)C)c(S(=O)(=O)NC(Cc2cccc(C(=N)N)c2)C(=O)N2CCC(C(=O)O)CC2)c(C(C)C)c1` (stereo not drawn), the Ki in assay [1] was 52 µM; on Plasminogen [2], 12 µM; on Serine protease 1 [3], 6.4 µM.
The corresponding values for `CC(C)c1cc(C(C)C)c(S(=O)(=O)NC(Cc2cccc(C(=N)N)c2)C(=O)N2CCCCC2)c(C(C)C)c1` (stereo not drawn) are 5.1 µM, 2.6 µM and 1.3 µM.
Take `COC(=O)N1CCN(C(=O)C(Cc2cccc(C(=N)N)c2)NS(=O)(=O)c2c(C(C)C)cc(C(C)C)cc2C(C)C)CC1` (stereo not drawn): the Ki on Plasminogen [2] came out at 1.8 µM; at Serine protease 1 [3], 0.11 µM.
